Data from patent publication US6365628B1 (Thia Medica AS, priority 1998, dated 2002).

Legend:
male Wistar rats = test: Hepatic levels of triacylglycerol in rats fed fatty acid analogues (Example 17); assay type: in vivo, rat; settings: no prefeeding
From the text: Even an increased hepatic level of triacylglycerol may be relieved by TTA. Feeding rats with an inhibitor of fatty acid oxidation will increase the level of hepatic triacylglycerol resulting in fatty liver. Tetradecyl-4-thia propionic acid (TTP) is a fatty acid analogue with a sulphur atom in the 4 position. This analogue inhibits the β-oxidation of fatty acids due to the formation of a mitochondrial inhibitor. Feeding rats with this analogue results in the formation of fatty. However, if the rats are fed with a combination of TTA and TTP, the formation of fatty liver is avoided (Table 8). This provides evidence that TTA may be used for the treatment of conditions with an increased hepatic level of triacylglycerol. Male Wistar rats had free access to water and rat maintenance chow. They were fed palmitic acid or fatty acid analogues suspended in 0.5% CMC for 6 days. In some experiments TTA or TTP were fed for 3 days before feeding both for 6 days. At the end of the experiment the rats were fasted overnight, killed, the liver removed and homogenized. Triacylglycerol was measured in the homogenate.

Wistar rats = test: Lipid lowering effect in normal Wistar rats (Example 4); assay type: in vivo, rat; settings: gavage once daily for 7 days
Method: Phospholipids were measured by the enzymatic method of bioMérieux, Marcy-l {grave over ( )}Etoile, France, Triacylglycerol by the Technicon Method no. SA4-0324L90, USA and Cholesterol by the Technicon Method no. SA4-0305L90, USA.
Male Wistar rats, weighing 180-200 g at the start of the experiment, were housed individually in metal wire cages in a room maintained at 12 h light-dark cycles and a constant temperature of 20±3° C. The animals were acclimatised for one week under these conditions before the start of the experiments.
TTA, TSA and eicosapentaenoic acid (EPA) were suspended in 0.5% (w/v) carboxymethyl cellulose (CMC). Six animals were used for each treatment, and a 0.5% CMC solution was administrated to the rats as control. After administration of the test compound, the rats were fasted for 12 hours and anaesthetised with haloethan. The EPA and the fatty acid derivatives were administered by gastric intubation (gavage) once daily for 7 days. Blood samples were collected by cardiac puncture, and lipid concentrations in plasma were determined as outlined in the method section.

[1] = tested on: rat liver mitochondrial β-oxidation; test: Mitochondrial β-oxidation in rat liver, fatty acid analogues with S in different positions (Example 18); assay type: in vivo; settings: [1-14C]-palmitoyl-L-carnitine as substrate
Method: Freshly isolated livers from individual old Zucker rats, were homogenised in ice-cold sucrose buffer (0.25 M sucrose, 10 mM HEPES (pH 7.4) and 2 mM EDTA). Post-nuclear and mitochondrial fractions were prepared using preparative differential centrifugation according to DeDuve et al. (De Duve, C., et al., Biochem. J., 60, 604-617 1955.) Modifications, purity and yield were as described earlier (Garras, A., et al., Biochim. Biophys. Acta, 1255, 154-160 1995.). Acid soluble products were measured in post-nuclear and mitochondrial enriched fractions, using [1-^14C]-palmitoyl-CoA and [1-^14C]-palmitoyl-L-carnitine (Radiochemical Centre, Amersham, England) as substrates as described earlier (Willumsen, N., et al., J. Lipid Res., 34, 13-22 1993. Carnitine palmitoyltransferase-I and -II activities were measured in the post-nuclear and mitochondrial fractions essentially as described by Bremer (Bremer, J., Biochim. Biophys. Acta, 665, 628-631 1981.) and 3-hydroxy-3-methylglutharyl-CoA synthase was measured according to Clinkenbeard et al. (Clinkenbeard, K. D., et al., J. Biol. Chem, 250, 3108-3116 1975.) in the mitochondrial fractions.
The mitochondrial β-oxidation is measured as in example 16 with the use of [1-^14C]-palmitoyl-L-carnitine as substrates.

Salmonella typhimurium = test: Test for mutagenic activity in Salmonella typhimurium strains; assay type: cell-based; settings: 3-1000 mg/plate (TTA) 2-5000 mg/plate (TSA)
From the text: (§1) Tests for mutagenic activity have been performed by Covance Laboratories Limited, England. […] Furthermore, TTA was not mutagenic when tested in mouse lymphoma cells […] L5178Y.

Escherichia coli = test: Test for mutagenic activity in Escherichia coli strains; assay type: cell-based; settings: 3-1000 mg/plate (TTA) 2-5000 mg/plate (TSA)
From the text: as §1

[2] = tested on: chinese hamster ovary cells; test: Chromosomal aberrations in cultured chinese hamster ovary cells; assay type: cell-based; settings: doses tested 12-140 mg/ml
[3] = dose 1500 mg/day/kg body weight

Q: Which “Hepatic triacylglycerol TG (μmol/g)” value (male Wistar rats; TTP 300 mg/kg/day for 6 days) does the source give for CCCCCCCCCCCCCCSCCC(=O)O here?
A: The value was 95,4 ± 14,7 μmol/g.

Q: Which “Plasma lipids (% reduction of control) cholesterol” value (Wistar rats; [3]) does the source give for CC/C=C\C/C=C\C/C=C\C/C=C\C/C=C\CCCC(=O)O [EPA, eicosapentaenoic acid, reference compound] here?
A: The value was 18 % reduction of control.

Q: And the “Plasma lipids (% reduction of control) triglycerides” value (Wistar rats; [3])?
A: Its value is 20 % reduction of control.

Q: Which results are given for CCCCCCCCCCCCCCCC(=O)O [Palm, palmitic acid]?
A: Hepatic triacylglycerol TG (μmol/g) (male Wistar rats; palmitic acid for 6 days): 10,9 μmol/g; Mitochondrial β-oxidation activity (nmol/min/mg protein) [1]: 0,47 ± 0,06 nmol/min/mg protein

Q: With Tetradecylselenoacetic acid [TSA] as the compound, how does the “Induction of mutations in strains of Salmonella typhimurium” value (Salmonella typhimurium) read?
A: The value was “did not induce mutations”.

Q: And the “Induction of mutations in strains of Escherichia coli” value (Escherichia coli)?
A: Its value is “did not induce mutations”.

Q: And the “Chromosomal aberrations in cultured chinese hamster ovary cells” value [2]?
A: The value was “no aberrations were induced”.

Q: And the “Plasma lipids (% reduction of control) cholesterol” value (Wistar rats; dose 15 mg/day/kg body weight)?
A: Its value is 20 % reduction of control.

Q: And the “Plasma lipids (% reduction of control) triglycerides” value (Wistar rats; dose 15 mg/day/kg body weight)?
A: The value was 25 % reduction of control.
